Laboratory results from article PMC5016780, “Development of a Cell-penetrating Peptide that Exhibits Responsive Changes in its Secondary Structure in the Cellular Environment” (Scientific Reports, 2016).
Entries after “also recorded” stand apart in the source; their conditions may differ. Non-standard residues stand in square brackets, D forms with d. Residues, ends and D or L forms follow the SMILES beside them. *: point of attachment. 5FAM = O=C1OC2(c3ccc(O)cc3Oc3cc(O)ccc32)c2ccc(C(=O)*)cc21; Pro(cis-4-guanidino) = NC(N)=N[C@@H]1CN[C@H](C(=O)O)C1; Pro(4S-NH2) = N[C@@H]1CN[C@H](C(=O)O)C1; βAla = NCCC(=O)O

How the values were obtained:
[1] = Peptide stability in culture medium containing 10% FBS (pre-incubation uptake and LC-MS); type: in vitro ADME; settings: 0–24 h at 37 °C, then 2 hr with HeLa cells at 37 °C (1 μM, flow cytometry), and LC-MS analysis, 1–24 hr in culture medium containing 10% FBS
Procedure: Figure S8. (a) Cellular uptake of the peptides 1-5 after 1-24 h pre-incubation (peptide concentration: 1 µM). Values are the means ± standard deviation of three independent Figure 5b. Cellular uptake of the peptides 1-5 LC-MS analsisys. the stability of the peptides (1-24 hr) after 1-24 hr pre-incubation. in culture media containing 10% FBS using LC-MS. cultures. (b) The peptides’ stability (1-24 hr) analysis in culture medium containing FBS using LCCytotoxicity-MS. […]

[2] = system: HeLa cells; assay: Time course of cellular uptake (1–24 hr); type: cell-based; settings: 37 °C, 1 μM peptide; for stability in culture medium / cellular environment, as concluded from the uptake time course: culture medium containing fetal bovine serum (FBS)
Procedure: The results of the cytotoxicity analysis, in which HeLa cells were treated with peptides 1–5 for 24 hr at concentrations of 1, 4, and 8 μM, are shown in Fig. S9. […] Next, we investigated the intracellular uptake pathways of R9 and peptide 3. In the presence of various endocytosis inhibitors (amiloride, a macropinocytosis inhibitor[37]; nystatin, a caveolae-mediated endocytosis inhibitor[38]; and sucrose, a clathrin-mediated endocytosis inhibitor[39]), the migration levels of R9 and 3 into the HeLa cells were compared (Fig. S10). […] Then, we investigated the intracellular localization and dynamic behavior of R9 and 3 using fluorescence microscopy. The cells’ late endosomes/lysosomes were stained with LysoTracker Red (red), and their nuclei were stained with Hoechst 33342 (blue). […] As a general approach, peptides that can change their helical structures in accordance with pH fluctuations are often used to promote escape from endosomes. […] We considered that peptide 3 might also directly penetrate the cell membrane more efficiently than R9 (R9 passes through the cell membrane via not only endocytosis but also non-endocytosis pathway, that is, direct permeation to the cell membrane)[44]. Therefore, we investigated the intracellular uptake of peptide 3 at low temperature using flow cytometry and fluorescence microscopy. At low temperature, energy-dependent pathways such as endocytosis are inhibited so it is possible to assess direct peptide penetration via energy-independent pathways. […] Peptides that can directly penetrate through the cell membrane can be used for efficient intracellular delivery as they are not affected by problems associated with the need to escape from endosomes.
Figure 5 (a) Cellular uptake of the peptides 1–5 and R9 after 1–24 hr (peptide concentration: 1 μM). Values are the means ± standard deviation of three independent cultures. (b,c) Peptide 3 and R9 were colocalized with lysosome marker. HeLa cells were treated with 10 μM peptides at 37 °C for 2 hr. The acidic late endosomes/lysosomes were stained with LysoTracker Red (red), and the nuclei were stained with Hoechst 33342 (blue). The scale bars represent 50 μm.
HeLa, A549, Jurkat and CHO-K1 cells were seeded in 6-well dishes at a density of 4.0 × 10^6 cells/well and cultured in DMEM (HeLa, A549), RPMI-1640 (Jurkat) and Ham’s F-12 (CHO-K1) for 24 hr, respectively. The cells were treated with each peptide (peptide concentration; 1 μM) and incubated for each time (1, 2, 4, 8, 16 and 24 hr). Then, the cells were washed three times with phosphate buffer (PBS) supplemented with heparin (20 units/mL) and detached by treatment of trypsin-EDTA. […] Then, the collected cells were suspended in 500 μL of PBS buffer and mean fluorescence intensity in cells was measured by flow cytometer. […]

[3] = system: HeLa cells; assay: Intracellular localization by fluorescence microscopy (endosomal escape); type: cell-based; settings: 10 μM peptide, 37 °C, 15 min–2 hr, LysoTracker Red and Hoechst 33342 staining
Procedure: The results of the cytotoxicity analysis, in which HeLa cells were treated with peptides 1–5 for 24 hr at concentrations of 1, 4, and 8 μM, are shown in Fig. S9. […] Next, we investigated the intracellular uptake pathways of R9 and peptide 3. In the presence of various endocytosis inhibitors (amiloride, a macropinocytosis inhibitor[37]; nystatin, a caveolae-mediated endocytosis inhibitor[38]; and sucrose, a clathrin-mediated endocytosis inhibitor[39]), the migration levels of R9 and 3 into the HeLa cells were compared (Fig. S10). […] Then, we investigated the intracellular localization and dynamic behavior of R9 and 3 using fluorescence microscopy. The cells’ late endosomes/lysosomes were stained with LysoTracker Red (red), and their nuclei were stained with Hoechst 33342 (blue). […] As a general approach, peptides that can change their helical structures in accordance with pH fluctuations are often used to promote escape from endosomes. […] Therefore, we investigated the intracellular uptake of peptide 3 at low temperature using flow cytometry and fluorescence microscopy. […]
Figure S11. Fluorescence microscopy images of HeLa cells that had been treated with 10 µM of peptides [(a) peptide 3, (b) R9, (c) peptide 2] for 15 min-2 hr at 37 °C. […]
Figure S12. Fluorescence microscopy images of HeLa cells that had been treated with 10 µM of peptides [(a) R9, (b) peptide 3, (c) peptide 2] for 2 hr at 37 °C. […]

[4] = system: HeLa cells; assay: Uptake in the presence of endocytosis inhibitors; type: cell-based; settings: amiloride 25 μM, sucrose 0.4 M or nystatin 25 μg/mL, 1 μM peptide, 1 hr, flow cytometry
Procedure: The results of the cytotoxicity analysis, in which HeLa cells were treated with peptides 1–5 for 24 hr at concentrations of 1, 4, and 8 μM, are shown in Fig. S9. […] Next, we investigated the intracellular uptake pathways of R9 and peptide 3. In the presence of various endocytosis inhibitors (amiloride, a macropinocytosis inhibitor[37]; nystatin, a caveolae-mediated endocytosis inhibitor[38]; and sucrose, a clathrin-mediated endocytosis inhibitor[39]), the migration levels of R9 and 3 into the HeLa cells were compared (Fig. S10). […] Then, we investigated the intracellular localization and dynamic behavior of R9 and 3 using fluorescence microscopy. The cells’ late endosomes/lysosomes were stained with LysoTracker Red (red), and their nuclei were stained with Hoechst 33342 (blue). […] Therefore, we investigated the intracellular uptake of peptide 3 at low temperature using flow cytometry and fluorescence microscopy. […]
The cells were seeded onto 6-well culture plates (400,000 cells/well) and incubated overnight in 2 mL of DMEM containing 10% FBS. […] Then, fluorescence intensity in the cells was measured as above. […] Statistical differences were analyzed by Student’s t-test. […]
Figure S11. Fluorescence microscopy images of HeLa cells that had been treated with […]

## N=C(N)NCCC[C@H](NC(=O)CCNC(=O)c1ccc2c(c1)C(=O)OC21c2ccc(O)cc2Oc2cc(O)ccc21)C(=O)N[C@@H](CCCNC(=N)N)C(=O)N1CCC[C@H]1C(=O)N[C@@H](CCCNC(=N)N)C(=O)N[C@@H](CCCNC(=N)N)C(=O)N1CCC[C@H]1C(=O)N[C@@H](CCCNC(=N)N)C(=O)N[C@@H](CCCNC(=N)N)C(=O)N1CCC[C@H]1C(=O)NCC(=O)NCC(=O)NCC(N)=O [peptide 1, FAM-β-Ala-(L-Arg-L-Arg-L-Pro)3-(Gly)3-NH2] (HELM PEPTIDE1{[O=C1OC2(c3ccc(O)cc3Oc3cc(O)ccc32)c2ccc(C(=O)[*:2])cc21].[bAla].R.R.P.R.R.P.R.R.P.G.G.G.[am]}$$$$V2.0)
[1]
  cell-penetrating ability and stability after pre-incubation in medium (in words): sharply fell as the pre-incubation time increased

## N=C(N)NCCC[C@H](NC(=O)CCNC(=O)c1ccc2c(c1)C(=O)OC21c2ccc(O)cc2Oc2cc(O)ccc21)C(=O)N[C@@H](CCCNC(=N)N)C(=O)N1C[C@@H](N)C[C@H]1C(=O)N[C@@H](CCCNC(=N)N)C(=O)N[C@@H](CCCNC(=N)N)C(=O)N1C[C@@H](N)C[C@H]1C(=O)N[C@@H](CCCNC(=N)N)C(=O)N[C@@H](CCCNC(=N)N)C(=O)N1C[C@@H](N)C[C@H]1C(=O)NCC(=O)NCC(=O)NCC(N)=O [peptide 2, FAM-β-Ala-(L-Arg-L-Arg-L-Pro^NH2)3-(Gly)3-NH2] ({5FAM-βAla}-RR[Pro(4S-NH2)]RR[Pro(4S-NH2)]RR[Pro(4S-NH2)]GGG-NH2)
[1]
  cell-penetrating ability and stability after pre-incubation in medium (in words): more chemically stable than R9 and peptide 1

## N=C(N)NCCC[C@H](NC(=O)CCNC(=O)c1ccc2c(c1)C(=O)OC21c2ccc(O)cc2Oc2cc(O)ccc21)C(=O)N[C@@H](CCCNC(=N)N)C(=O)N1C[C@@H](NC(=N)N)C[C@H]1C(=O)N[C@@H](CCCNC(=N)N)C(=O)N[C@@H](CCCNC(=N)N)C(=O)N1C[C@@H](NC(=N)N)C[C@H]1C(=O)N[C@@H](CCCNC(=N)N)C(=O)N[C@@H](CCCNC(=N)N)C(=O)N1C[C@@H](NC(=N)N)C[C@H]1C(=O)NCC(=O)NCC(=O)NCC(N)=O [peptide 3, FAM-β-Ala-(L-Arg-L-Arg-L-Pro^Gu)3-(Gly)3-NH2] ({5FAM-βAla}-RR[Pro(cis-4-guanidino)]RR[Pro(cis-4-guanidino)]RR[Pro(cis-4-guanidino)]GGG-NH2)
[1]
  cell-penetrating ability and stability after pre-incubation in medium (in words): more chemically stable than R9 and peptide 1; also recorded: remained stable in the medium containing FBS
[2]
  stability in culture medium / cellular environment, as concluded from the uptake time course: more stable than R9

## N=C(N)NCCC[C@H](NC(=O)CCNC(=O)c1ccc2c(c1)C(=O)OC21c2ccc(O)cc2Oc2cc(O)ccc21)C(=O)N[C@@H](CCCNC(=N)N)C(=O)N1C[C@@H](NC(=N)N)C[C@H]1C(=O)N1C[C@@H](NC(=N)N)C[C@H]1C(=O)N[C@@H](CCCNC(=N)N)C(=O)N[C@@H](CCCNC(=N)N)C(=O)N[C@@H](CCCNC(=N)N)C(=O)N[C@@H](CCCNC(=N)N)C(=O)N1C[C@@H](NC(=N)N)C[C@H]1C(=O)NCC(=O)NCC(=O)NCC(N)=O [peptide 4, FAM-β-Ala-(L-Arg)2-(L-Pro^Gu)2-(L-Arg)4-L-Pro^Gu-(Gly)3-NH2] ({5FAM-βAla}-RR[Pro(cis-4-guanidino)][Pro(cis-4-guanidino)]RRRR[Pro(cis-4-guanidino)]GGG-NH2)
[2]
  stability in culture medium / cellular environment, as concluded from the uptake time course: more stable than R9

## nona-arginine [R9, reference compound]
[3]
  endosomal escape / localization (in words): co-localized with the late endosomes/lysosomes
[4]
  effect of endocytosis inhibitors on uptake (in words): decreased by treatment with amiloride or sucrose
[1]
  cell-penetrating ability and stability after pre-incubation in medium (in words): sharply fell as the pre-incubation time increased
[2]; medium containing FBS, flow cytometry, three independent cultures
  cellular uptake over incubation time (in words): gradually decreased after 1-hr incubation
[2]
  stability in culture medium / cellular environment, as concluded from the uptake time course: unstable
